# Tests used:
# [1] = biological target: Protease (Human immunodeficiency virus 1) (UniProt Q9YQ12); experiment: Inhibition of HIV1 3B protease-mediated gag polyprotein processing in H9 cells assessed as decrease in p24 level by Western blotting; assay type: cell-based
# Cathepsin D = Cathepsin D (Homo sapiens, UniProt P07339); experiment: Inhibition of human cathepsin D
# Cathepsin D, sequence (P07339 65-162 limits assumed): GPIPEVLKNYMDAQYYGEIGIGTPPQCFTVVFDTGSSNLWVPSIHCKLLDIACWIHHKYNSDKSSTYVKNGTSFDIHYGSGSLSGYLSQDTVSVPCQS
# Cathepsin D, sequence (P07339 169-412 limits assumed): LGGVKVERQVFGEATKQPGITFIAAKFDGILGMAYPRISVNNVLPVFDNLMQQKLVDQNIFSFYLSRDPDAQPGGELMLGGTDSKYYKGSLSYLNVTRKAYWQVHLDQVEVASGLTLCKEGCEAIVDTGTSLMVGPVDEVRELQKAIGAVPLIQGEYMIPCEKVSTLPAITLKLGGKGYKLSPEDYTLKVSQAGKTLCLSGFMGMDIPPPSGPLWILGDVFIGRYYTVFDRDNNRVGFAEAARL
# Protease (Human immunodeficiency virus 1), sequence (Q9YQ12 as listed by the source): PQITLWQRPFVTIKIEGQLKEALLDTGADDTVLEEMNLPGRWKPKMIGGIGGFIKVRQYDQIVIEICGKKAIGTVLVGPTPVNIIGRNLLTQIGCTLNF
structure (smiles),measurement,setting,value
COC(=O)N[C@H](C(=O)NCCCC[C@@H](CO)N(CC(C)C)S(=O)(=O)c1ccc(N)cc1)C(c1ccccc1)c1ccccc1 [PPL-100],Activity,[1],Dose-dependent effect
same,IC50,Cathepsin D,> 50 µM
